# Test results published in US11213522B2, “Autoimmune-induced glutamatergic receptor dysfunction methods and treatments” (SARAH HERZOG MEMORIAL HOSPITAL EZRAT NASHIM ASSOCIATION, priority 2013, dated 2022).
# How the values were obtained:
# [1] = system: patient positive for anti-NR1 NMDAR antibodies; test: Wisconsin Card Sort Test (WCST); type: in vivo, human; conditions: post-6 weeks D-serine; pre-treatment subject unable to complete task
# Protocol: (§1) The trial consisted of two periods, starting with a 2 week lead-in/stabilization period (−2-0) following which the patient was entered in the second period of the study which consisted of a 6 week (0-6), open-label, fixed dose therapy phase. During this phase, the patient received adjuvant treatment with DSR, whose dose was increased from 1500 mg/day (week 1) to 2000 mg/day (weeks 2 and 3) to 3000 mg/day (weeks 4 and 5) and to 4000 mg/day (week 6). The doses of the ongoing medication received by the patient remained fixed throughout the study and no changes in medication were performed.
# In addition, cognitive performance was assessed pre- and post DSR treatment. For this purpose, a 1.5-hour neurocognitive assessment battery (nine computerized and two paper/pencil tests) was employed that measures accuracy and speed of performance in major cognition domains, including attention/vigilance, planning, short-term and working memory, decision making, abstraction and mental flexibility. All the tests were formatted like games and puzzles, and were administered to the patient as part of the comprehensive neuropsychiatric assessment at baseline and the end of study. The neurocognitive battery included the 1) Test of Attentional Vigilance (TOAV, (Forbes, 1998, Journal of Clinical Psychology 54:461-476; Greenberg, 1993, Journal of Child Psychology and Psychiatry 34: 1019-30)); 2) Tower of London (TOL, (Shailice, 1982, Specific impairments of planning Philosophical Transactions of the Royal Society of London. Series B, Biological Sciences 298:199-209); 3-4) Digit Span Test (DST, forward and backward (Wechsler 1997, The Wechsler adult intelligence scale-III. San Antonio, Tex.: Psychological Corporation; Kaplan 1991, The WAIS-R as a neuropsychological instrument. San Antonio, Tex.: The Psychological Corporation; Lamar et al., 2007, Neuropsychologia 45:245-54; Lamar et al., 2008, Neuropsychologia 46:2597-601)); 5-6) Corsi Block Tapping Test (CBTT, forward and backward, (Corsi, 1972, Dissertation Abstracts International. 34:819B; Kessels et al., 2000, Applied Neuropsychology 7:252-58, Kessels et al., 2008, Assessment 15:426-34)); 7) Flanker Task (Erikson and Eriksen, 1974; Perception & Psychophysics 25: 249-63, Stins et. al., 2007, Advances in Cognitive Psychology 3:389-96); 8) Time Wall (Perez et al., 1987, Unified Tri-services cognitive performance assessment battery: review and methodology; DTIC Document ADA181697, http://www.dtic.mil/dtic/tr/fulltext/u2/a81697.pdf); and Wisconsin Card Sort Test (WCST, (Berg, 1948, J Gen Psychol39:15-22; Nelson, 1976, Cortex 12:313-24)). […]
# [2] = system: patient positive for anti-NR1 NMDAR antibodies; test: Side effects and tolerability (UKU Side Effect Rating Scale, medical work-up), D-serine clinical trial; type: in vivo, human; conditions: throughout the study; 1500 to 4000 mg/day over 6 weeks, adjuvant
# Protocol: as §1
# The patient underwent prior to entering the study and at study weeks 3 and 6 a medical work-up including complete medical history, and routine clinical blood work, including blood count+differential, lipids, and glucose levels, kidney, thyroid, and liver function parameters, urinalysis, and blood pressure measurements. Abdominal ultrasound was performed prior to study entry and electroencephalogram (EEG) and brain magnetic resonance imaging (MR1) were obtained pre- and post-DSR administration.
# The assessment procedures used in the study included clinical and neurocognitive examinations. Motor and psychiatric symptoms as well as side-effects were rated biweekly throughout the study. […] In conjunction with UKU ratings, patient's vital signs and body weight were monitored throughout the study.
smiles,measurement,setting,value
N[C@H](CO)C(=O)O [D-serine],WCST Category Score,[1],5
same,WCST Total correct score %,[1],81.25%
same,WCST Total error score %,[1],18.75%
same,WCST Trials to complete 1st category,[1],12
same,Side effects,[2],no side effects were registered
same,Tolerability of DSR treatment,[2],well tolerated
